Results on one molecule are retold here after US20140356361A1, “REPEATED ADMINISTRATION OF NON-IMMUNOSUPPRESSIVE ANTIGEN SPECIFIC IMMUNOTHERAPEUTICS” (Selecta Biosciences, Inc., priority 2013, published 2014).

Common to all, as to type: in vivo, C57BL/6 mice
Data set [1] relates to chicken Ovalbumin (pOVA). The data set is described as follows: Anti-OVA antibody response, MTX given with pOVA (Example 17). The following applies: 200 μg MTX i.p. days 1-3, 7-9, 14-16; 5 weekly i.v. injections of 25 μg pOVA; FIG. 2. As to the method: (§1) C57BL/6 age-matched (5-6 weeks) female mice were injected 5 times intravenously in the tail vein with weekly injections of 25 μg of an immunogenic, particulate form of chicken Ovalbumin (pOVA). One group of animals received 3 intraperitoneal injections of 200 μg of MTX along with the 3 first antigen injections the same day and the 2 following days. The untreated group received only antigen whereas the treated group received 9 injections total of MTX i.p. (days 1-3, 7-9, 14-16). On the 4th and 5th injection days all animals received 20 μg of keyhole limpet hemocyanine (KLH) subcutaneously in the hind limbs admixed to 2 μg of CpG in addition to the i.v. injection of pOVA.
(§2) The anti-KLH and anti-OVA antibody responses were monitored in the blood in these animals at different time points.

Data set [2] concerns keyhole limpet hemocyanine (KLH). Description: Anti-KLH antibody response, KLH+CpG given after MTX treatment (Example 17). Particulars: 20 μg KLH + 2 μg CpG s.c. injected after the MTX treatments (from d21); FIG. 2. The procedure: as §1, §2
Data set [3] concerns keyhole limpet hemocyanin (KLH). The data set is described as follows: Anti-KLH IgG titers, MTX given with KLH i.v. (Example 18). The following applies: MTX i.p. days 1-3, 7-9, 14-16; 200 μg KLH i.v. weekly, 5 injections; FIG. 3. As to the method:
(§3) In order to test whether multiple injections of MTX can lead to the establishment of immunological tolerance, C57BL/6 age-matched (5-6 weeks) female mice were injected intravenously in the tail vein with weekly injections of 200 μg of keyhole limpet hemocyanin (KLH) and subcutaneously in the hind limbs with 25 μg of a particulate form of chicken Ovalbumin (pOVA) admixed to 2 μg of CpG oligodeoxynucleotides (ODN). With the first three antigen injections, a group of animals received 3 intraperitoneal injections of MTX on the same day and the following 2 days. All animals received 5 injections of antigen (d0, 7, 14, 21 and 28) and one group received 9 additional injections of MTX i.p. (days 1-3, 7-9, 14-16).
(§4) The anti-KLH and anti-OVA responses were monitored in the blood in these animals at different time points.

The subject of data set [4] is chicken Ovalbumin (pOVA). Description: Anti-OVA IgG titers, MTX given with pOVA+CpG s.c. (Example 18). Particulars: MTX i.p. days 1-3, 7-9, 14-16; 25 μg pOVA + 2 μg CpG s.c. weekly, 5 injections; FIG. 3. As to the method:
as §3, §4

For the molecule `CN(Cc1cnc2nc(N)nc(N)c2n1)c1ccc(C(=O)N[C@@H](CCC(=O)O)C(=O)O)cc1` [MTX, Methotrexate], the anti-OVA antibody response entry in data set [1] was “blocked the antibody response and only minimal titers were detected”. Further, in data set [2], the anti-KLH response result is “robust anti-KLH response could be detected in all groups”. Also, in data set [3], the “anti-KLH IgG antibody titers” value is “blocked both responses and the animals showed low titers”. In addition, the “anti-OVA IgG antibody titers” value in data set [4] was “blocked both responses and the animals showed low titers”.
